In this experiment the target is T1, MRGPRX2 (Homo sapiens, UniProt Q96LB1).
T1 sequence (Q96LB1 1-330): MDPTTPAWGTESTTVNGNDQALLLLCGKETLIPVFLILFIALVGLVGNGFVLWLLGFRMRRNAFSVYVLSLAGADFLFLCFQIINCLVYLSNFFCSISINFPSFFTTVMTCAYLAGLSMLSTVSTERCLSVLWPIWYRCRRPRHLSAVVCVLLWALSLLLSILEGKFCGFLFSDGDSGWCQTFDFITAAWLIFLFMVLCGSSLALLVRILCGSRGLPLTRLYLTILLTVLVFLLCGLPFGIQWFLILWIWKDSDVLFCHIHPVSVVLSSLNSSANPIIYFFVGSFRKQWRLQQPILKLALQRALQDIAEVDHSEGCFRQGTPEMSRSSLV
Kind of experiment: SPR, MRGPRX2 protein immobilised on CM5 chip. The format is binding.

As a reminder, the Kd is a measure of binding affinity in units of concentration.

Where a name gives a salt, the structure may show the parent alone.

For the molecule `COC1=C[C@@H]2[C@@H]3Cc4ccc(OC)c(O)c4[C@]2(CCN3C)CC1=O` [SH, sinomenine hydrochloride], binding was characterised by a dissociation constant (Kd) of 0.681 µM.
Regarding `COC1=C[C@@H]2[C@@H]3Cc4ccc(OC)c(O)c4[C@]2(CCN3)CC1=O` [M-3, N-demethylsinomenine], the affinity, expressed as Kd, was 7.58 µM. Compared with the last molecule, the Kd is about 11-fold higher.

The values are drawn from PMC11322065, “N-demethylsinomenine metabolite and its prototype sinomenine activate mast cells via MRGPRX2 and aggravate anaphylaxis” (Frontiers in Pharmacology, 2024).
